Test results as given in patent US20250144127A1, “LONG-CHAIN COMPOUND AND USE THEREOF” (Burgeon Therapeutics Co., Ltd., priority 2021, published 2025).

Tests used:
[1] = tested on: ACLY knockdown primary hepatocytes; assay: De novo lipid synthesis in ACLY knockdown primary hepatocytes, [14C]-citric acid tracer; type: cell-based, mouse; details: [14C]-citric acid substrate
Excerpt: Test protocol: In order to further investigate the dependence of the inhibitory effect of the series of compounds on de novo lipid synthesis on ACLY, the inventors chose ACLY knockdown primary hepatocytes for further evaluation of de novo lipid synthesis, while compound ETC-1002 was used as a positive control. Specifically, the experimental protocol was as above, and 0.1 μCi/well [^14C]-citric acid was used for tracing.

[2] = tested on: ApoE−/− mice; assay: Atherosclerosis in ApoE-/- mice on high cholesterol chow, aortic plaque Sudan IV staining; type: in vivo, mouse
Procedure: Dosing regimen: Hypercholesterolemia is an important trigger for the development of atherosclerosis. […] The specific scheme is as follows. 60 ApoE^−/− mice, males, were equally divided into 6 groups (n=10), of which 5 groups were fed with high cholesterol chow (Research diet, item no. D12079B) for modeling, and 1 group was set aside as a blank control group, while long-term administration of the drug was carried out, i.e., the model control group, the positive control ETC-1002 30 mg/kg group, and the compounds A3 15 mg/kg and 30 mg/kg and 60 mg/kg groups, and blank control group. The compounds in each group were configured with saline (0.9% NaCl) and administered at a frequency of 1 time/day for a 24-week dosing cycle.
Indicator test: The body weight and food intake of ApoE^−/− mice were closely monitored during the administration period. After 24 weeks of compound administration in each group, the aortic vessels of mice were stripped and Sudan IV staining of aortic plaques was performed, and the plaque area was counted with Image-Pro Plus software.

[3] = molecular target: T1, Human-derived ACLY protein (Homo sapiens, UniProt P53396); assay: ACLY citrate cleavage enzyme inhibition, ADP-Glo assay; type: biochemical; details: 25 nM enzyme, 30 min, 37° C., read-out: IC50 for inhibition of ACLY enzyme activity (mean ± SD)
T1 construct: purchased Beijing Yiqiao Shenzhou Technology Co., Ltd 11769-H07B
T1 sequence (P53396 1-1101): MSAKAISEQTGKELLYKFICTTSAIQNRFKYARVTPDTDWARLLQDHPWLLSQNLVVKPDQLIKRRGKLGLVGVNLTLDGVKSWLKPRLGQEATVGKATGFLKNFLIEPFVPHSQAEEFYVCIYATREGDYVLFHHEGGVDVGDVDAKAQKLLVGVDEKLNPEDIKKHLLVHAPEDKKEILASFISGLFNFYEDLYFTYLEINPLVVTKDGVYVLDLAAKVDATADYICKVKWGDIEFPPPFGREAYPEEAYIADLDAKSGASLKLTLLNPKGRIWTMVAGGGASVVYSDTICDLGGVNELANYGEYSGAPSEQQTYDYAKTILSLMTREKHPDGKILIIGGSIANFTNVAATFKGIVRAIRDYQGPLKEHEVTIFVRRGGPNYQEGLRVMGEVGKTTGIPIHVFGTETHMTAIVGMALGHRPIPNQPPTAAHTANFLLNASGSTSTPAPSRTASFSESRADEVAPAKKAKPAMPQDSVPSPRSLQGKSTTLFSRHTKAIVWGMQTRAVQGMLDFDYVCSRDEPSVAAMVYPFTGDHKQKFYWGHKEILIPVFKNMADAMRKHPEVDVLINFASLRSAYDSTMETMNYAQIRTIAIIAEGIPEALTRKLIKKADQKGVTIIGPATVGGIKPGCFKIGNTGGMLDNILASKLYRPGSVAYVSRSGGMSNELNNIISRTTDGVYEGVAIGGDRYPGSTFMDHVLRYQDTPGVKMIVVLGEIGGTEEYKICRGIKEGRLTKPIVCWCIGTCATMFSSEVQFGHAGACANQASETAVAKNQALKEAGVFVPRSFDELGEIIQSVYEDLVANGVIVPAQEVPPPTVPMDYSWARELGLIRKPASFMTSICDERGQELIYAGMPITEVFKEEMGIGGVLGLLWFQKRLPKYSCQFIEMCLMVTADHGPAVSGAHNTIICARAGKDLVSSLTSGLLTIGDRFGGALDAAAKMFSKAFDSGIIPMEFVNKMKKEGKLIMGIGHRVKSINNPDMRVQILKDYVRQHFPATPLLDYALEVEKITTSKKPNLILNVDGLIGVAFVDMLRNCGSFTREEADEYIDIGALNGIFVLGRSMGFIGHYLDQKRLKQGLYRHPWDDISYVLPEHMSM
Excerpt: The ACLY-catalyzed citric acid cleavage process requires the consumption of one molecule of ATP to activate citric acid. Based on this reaction principle, the inventors utilized an ADP-Glo assay kit to detect the amount of ATP converted to ADP in response to the catalytic activity of ACLY. After the establishment of the activity measurement system and optimization of the reaction conditions, the inventors evaluated the ACLY inhibitory activity of the obtained novel ACLY small molecule inhibitors.
Activity test protocol: Human-derived ACLY protein was purchased from Beijing Yiqiao Shenzhou Technology Co., Ltd (Item No. 11769-H07B), and ADP-Glo assay kit was purchased from Promega (Item No. V9102). The total volume of the reaction was 5 μL, which consisted of a mixture of three parts: 1 μL of 2% DMSO, 2 μL of the substrate mixture, and 2 μL of the enzyme (final concentration of 25 nM). Then 1 μL of different concentrations of compounds were added for incubation. Reaction conditions: 30 min, 37° C. Then 2.5 μL of ADP Reagent from ADP-Glo Kit was used, mixed well and reacted for 2 h. 5 μL of ADP Detection was added, centrifuged and mixed well. Then the full wavelength value was read from Envision multifunctional plate reader.
Results: Firstly, the cumulative amount of fluorescence intensity of the enzyme in 30 min reaction time (RFU/min) was calculated to represent the initial velocity of the enzyme, and then the ratio of the enzyme's velocity with the addition of compounds (vsample) to the enzyme's velocity without the addition of compounds (vDMSO) was calculated to be the percentage of activity for each concentration group of the samples (Activity rate %), with the formula: % Activity=(V(sample)/(v(DMSO))×100%. The logarithmic value of the concentration was plotted against the activity percentage, and then a non-linear regression was used to calculate the fitted curve. The software GraphPad Prism 8.0 (formula log (inhibitor) vs. response—Variable slope) was used to fit the curve and calculate the IC50 value, and the results are shown in the table below.

## CC(C)(CCCC/C=C/CCCCCC(C)(C)C(=O)O)C(=O)O [Compound A3]
[1]
  inhibitory effect on de novo synthesis of cholesterol: significantly attenuated or even the inhibitory effect was not manifested
  inhibitory effect on de novo synthesis of triglycerides: significantly attenuated or even the inhibitory effect was not manifested
[2]; 15, 30 and 60 mg/kg groups, 1 time/day, 24 weeks, vs control group
  area of aortic plaque: significantly reduced
[2]; statement on previous studies
  improving atherosclerosis compared with ETC-1002: significantly better than ETC-1002
[3]
  IC50: 85.4 ± 9.8 µM
